US4504481A, “Benzhydrylpiperazine derivatives, process for their preparation and pharmaceutical compositions containing them” (Richter Gedeon Vegyeszeti Gyar Rt., priority 1982, dated 1985)

Key:
acute oral toxicity = conditions: in vivo; rat, single 500 mg./kg. oral dose, 14 days observation, n=10; read-out: Perished animals
Description: The acute toxicity of the compounds having the formula (I) was tested on H-Wistar rats of both sexes, each weighing 160 to 180 g. The compounds were administered in a single 500 mg./kg. oral dose.

hexobarbital oxidase = experiment: in vivo hexobarbital narcosis period (change of hexobarbital oxidase activity); parameters: species or system Female Hann.-Wistar rats; conditions: rat, hexobarbital sodium 60 mg./kg. i.v., ± S.E., n=10; for Hexobarbital narcosis period in % of control, 1 hour: 1 hour after administration, control 44.3 ± 5.67 min.; for Hexobarbital narcosis period in % of control, 24 hours: 24 hours after administration, control 47.0 ± 5.21 min.
Description: The enzyme inhibiting activity of the new compounds was tested in vivo, by measuring the change of hexobarbital oxidase activity. Female Hann.-Wistarrats, each weighing 50 to 60 g. were treated orally with a single 40 mg./kg. dose of the test compound. One and 24 hours after the administration of the active ingredient, the animals were narcotized with a 60 mg./kg. i.v. dosage of hexobarbital sodium, and the time elapsed until complete wakening was measured (Noordhoek, J.: Eur. J. Pharmacol., 3, 242 (1968)). The data were recorded, and the mean values, the standard errors as well as the percentage increase with respect to the controls were calculated for each group. […] The hexobarbital concentration of the plasm, measured on the instant wakening, was the same for both the treated and the control animals, and thus the increase of narcosis period was not due to a certain central nervous interaction (Jori, A. et al.: Biochem. Pharmacol., 19, 2687 (1970)).
The control group was treated with placebo.

aniline hydroxylase = aniline hydroxylase activity of liver after oral treatment (p-amino-phenol formation); assay type: in vivo, Female H.-Wistar rats; conditions: rat liver, 2 hours after single 40 mg./kg. oral dose; ± S.E.; control 19.8 ± 0.53 nmoles/g. of liver/min.
Description: (§1) The enzyme inhibiting activity of the compounds of the formula (I) was further tested by determining the activity of the polysubstrate liver monooxygenase enzyme system after treatment with placebo and the compounds according to the invention, respectively. Female H.-Wistar rats weighing 50 to 60 g. each were administered a single 40 mg./kg. oral dose of the test compounds. Two hours after treatment the animals were decapitated and the livers were removed. After rinsing with a physiological saline solution at 0° C., drying and weighing, the livers were homogenized in a 0.1 molar Tris-HCl buffer (pH=7.4), containing 1.15% of potassium chloride at 0° C., centrifuged at 9000 g for 20 minutes, and the supernatant (postmitochondrial fraction) was used for further investigations. The microsomal fraction was prepared following the method developed by Cinti D. L. et al.: Biochem. Pharmacol., 21, 3249 (1972). The activity of aniline hydroxylase was determined from the velocity of p-amino-phenol formation according to Chabra R. S. et al.: Toxicol. Appl. Pharmacol. 22, 50 (1972). The activity of the aminopyrine demethylase was measured from the amount of the formaldehyde formed, according to Gourlay G. K. et al: Biochem. Pharmacol., 27, 965 (1978). The control groups were treated with placebo. The results are shown in Table 2, expressed in percentage of the control.

aminopyrine demethylase = aminopyrine demethylase activity of liver after oral treatment (formaldehyde formed); assay type: in vivo, Female H.-Wistar rats; conditions: rat liver, 2 hours after single 40 mg./kg. oral dose; ± S.E.; control 260.7 ± 11.2 nmoles/g. of liver/min.
Description: as §1

[1] = H. Ippen: Index Pharmacorum (1970); cited from earlier work

CCC(O)(c1ccc(OCCCN2CCN(C(c3ccccc3)c3ccccc3)CC2)cc1)c1ccccc1OC (stereo not drawn) [A, α-ethyl-α-(2-methoxyphenyl)-4-[3-(4-benzhydryl-piperazin-1-yl)-propoxy]-benzylalcohol]
mortality at 336 h (acute oral toxicity): 0%
Hexobarbital narcosis period in % of control, 1 hour (hexobarbital oxidase; single oral dose 40 mg./kg.): 116 ± 6.7 % of control
Hexobarbital narcosis period in % of control, 24 hours (hexobarbital oxidase; single oral dose 40 mg./kg.): 172 ± 8.7 % of control
Aniline hydroxylase activity, in percentage of the control (aniline hydroxylase): 72 ± 5.8 % of control
Aminopyrine demethylase activity, in percentage of the control (aminopyrine demethylase): 71 ± 8.1 % of control

CCCC(C(=O)OCCN(CC)CC)(c1ccccc1)c1ccccc1 [Proadiphene, (2-diethylaminoethyl)-α,α-diphenyl valerate, reference compound]
mortality at 336 h (acute oral toxicity): 90%
Hexobarbital narcosis period in % of control, 1 hour (hexobarbital oxidase; reference dose 100 mg./kg.): 241 ± 9.6 % of control
Hexobarbital narcosis period in % of control, 24 hours (hexobarbital oxidase; reference dose 100 mg./kg.): 44 ± 5.7 % of control
anticonvulsive side effect [1]: exerted an anticonvulsive side effect
